Measured values: paper PMC3722588 (Journal of the American Chemical Society, 2013)

Molecular target: T184C MMP12 catalytic domain (Mus musculus, UniProt P34960, T184C)
Assay: Gel labeling of recombinant enzyme spiked in rat liver lysates
Assay type: binding
Details: 10 μM pretreatment before TND124, rat liver lysates

T184C MMP12 catalytic domain, sequence (P34960 29-267 T184C): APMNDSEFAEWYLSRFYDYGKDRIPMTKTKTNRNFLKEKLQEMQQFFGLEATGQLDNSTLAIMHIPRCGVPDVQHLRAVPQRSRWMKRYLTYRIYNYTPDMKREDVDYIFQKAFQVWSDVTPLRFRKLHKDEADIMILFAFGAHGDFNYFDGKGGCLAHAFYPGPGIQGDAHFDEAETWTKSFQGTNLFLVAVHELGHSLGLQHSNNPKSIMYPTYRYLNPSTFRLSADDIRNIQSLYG

CNC(=O)[C@H](Cc1c[nH]c2ccccc12)NC(=O)[C@@H](CC(=O)NO)CC(C)C [GM6001]
Blocking of TND124 labeling by pretreatment: completely blocked labeling
